Experimental data reported in ChEMBL document CHEMBL5154702, “Synthesis and biological evaluation of aminobenzamides containing purine moiety as class I histone deacetylases inhibitors” (Bioorg Med Chem, 2022).
Active and inactive are the calls of the source. The rule behind the calls is not given here.

Experiments:
[1] = molecular target: Histone deacetylase 3/Nuclear receptor corepressor 2 (HDAC3/NCoR2) (Homo sapiens, UniProt O15379); experiment: biochemical; design: species or system Sf9
HCT-116 [2] = experiment: Induction of apoptosis in human HCT-116 cells assessed as late apoptotic cells at 5 uM measured after 24 hrs by Annexin V-FITC/propidium iodide staining based flow cytometry (reference value: 3.43%); assay type: functional
HCT-116 [3] = experiment: Cell cycle arrest in human HCT-116 cells assessed as down regulation of cyclin D1 expression at 5 uM by Western blot analysis; assay type: functional, cell-based; conditions: time 6-48 hrs, TDE = time-dependent effect
HCT-116 [4] = experiment: Cell cycle arrest in human HCT-116 cells assessed as accumulation of cells at G0/G1 phase at 10 uM measured after 24 hrs by propidium iodide staining based flow cytometry (reference value: 58.05%); assay type: functional
HCT-116 [5] = experiment: Induction of cell morphological changes in human HCT-116 cells assessed as […] deformation at 0.5 to 5 uM measured after 24 hrs by phase contrast microscopy; assay type: functional, cell-based; conditions: dose 0.5-5 µM
HCT-116 [6] = experiment: Cell cycle arrest in human HCT-116 cells assessed as down regulation of Bcl-2 expression at 5 uM by Western blot analysis; assay type: functional, cell-based; conditions: time 6-48 hrs, TDE = time-dependent effect
HCT-116 [7] = experiment: Cell cycle arrest in human HCT-116 cells assessed as accumulation of cells at G0/G1 phase at 5 uM measured after 24 hrs by propidium iodide staining based flow cytometry (reference value: 58.05%); assay type: functional
A549 = experiment: cells; assay type: functional, cell-based; conditions: Homo sapiens, A549, 48 h
MDA-MB-231 = experiment: Potency index, ratio of SAHA IC50 to test compound IC50 for antiproliferative activity against human MDA-MB-231 cells; assay type: functional
Histone deacetylase 8 = molecular target: T1, Histone deacetylase 8 (Homo sapiens, UniProt Q9BY41); experiment: Inhibition of human full-length C-terminal His-tagged HDAC8 expressed in baculovirus infected Sf9 insect cell using fluorogenic HDAC class 2a substrate measured after 30 mins by fluorimetry
T1 sequence (Q9BY41 whole entry): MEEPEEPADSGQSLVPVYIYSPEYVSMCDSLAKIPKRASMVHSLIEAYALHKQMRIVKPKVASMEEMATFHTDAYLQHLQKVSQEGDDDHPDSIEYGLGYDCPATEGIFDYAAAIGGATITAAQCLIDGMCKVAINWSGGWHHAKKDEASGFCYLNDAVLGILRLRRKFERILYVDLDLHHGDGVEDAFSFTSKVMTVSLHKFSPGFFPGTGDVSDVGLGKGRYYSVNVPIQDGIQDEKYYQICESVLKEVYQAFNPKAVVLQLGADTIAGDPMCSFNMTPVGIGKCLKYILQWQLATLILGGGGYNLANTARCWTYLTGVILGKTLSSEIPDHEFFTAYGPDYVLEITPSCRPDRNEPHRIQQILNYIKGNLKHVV

HCT-116 [8] = experiment: Induction of apoptosis in human HCT-116 cells assessed as necrotic cells at 1 uM measured after 24 hrs by Annexin V-FITC/propidium iodide staining based flow cytometry (reference value: 7.39%); assay type: functional
[9] = Intrinsic clearance in human liver microsomes assessed per mg protein at 13.8 uM by HPLC analysis; assay type: ADME, Microsome
[10] = Half life in rat liver microsomes at 13.8 uM by HPLC analysis; assay type: ADME, Microsome

Sequence of Histone deacetylase 3/Nuclear receptor corepressor 2 (HDAC3/NCoR2) (O15379 whole entry): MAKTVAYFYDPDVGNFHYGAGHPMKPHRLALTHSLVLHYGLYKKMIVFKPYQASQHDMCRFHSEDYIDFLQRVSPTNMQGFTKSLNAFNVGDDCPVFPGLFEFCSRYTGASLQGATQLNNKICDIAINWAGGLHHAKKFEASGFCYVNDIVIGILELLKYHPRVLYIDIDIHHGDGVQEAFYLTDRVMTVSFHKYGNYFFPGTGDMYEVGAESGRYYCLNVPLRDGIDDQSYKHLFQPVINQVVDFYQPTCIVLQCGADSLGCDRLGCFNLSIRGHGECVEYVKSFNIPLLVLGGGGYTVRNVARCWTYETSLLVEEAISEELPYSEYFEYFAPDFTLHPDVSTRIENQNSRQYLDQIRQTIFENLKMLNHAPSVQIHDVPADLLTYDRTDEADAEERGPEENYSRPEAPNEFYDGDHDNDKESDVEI
Sequence of Histone deacetylase 3/Nuclear receptor corepressor 2 (HDAC3/NCoR2) (Q9Y618 whole entry, further chain): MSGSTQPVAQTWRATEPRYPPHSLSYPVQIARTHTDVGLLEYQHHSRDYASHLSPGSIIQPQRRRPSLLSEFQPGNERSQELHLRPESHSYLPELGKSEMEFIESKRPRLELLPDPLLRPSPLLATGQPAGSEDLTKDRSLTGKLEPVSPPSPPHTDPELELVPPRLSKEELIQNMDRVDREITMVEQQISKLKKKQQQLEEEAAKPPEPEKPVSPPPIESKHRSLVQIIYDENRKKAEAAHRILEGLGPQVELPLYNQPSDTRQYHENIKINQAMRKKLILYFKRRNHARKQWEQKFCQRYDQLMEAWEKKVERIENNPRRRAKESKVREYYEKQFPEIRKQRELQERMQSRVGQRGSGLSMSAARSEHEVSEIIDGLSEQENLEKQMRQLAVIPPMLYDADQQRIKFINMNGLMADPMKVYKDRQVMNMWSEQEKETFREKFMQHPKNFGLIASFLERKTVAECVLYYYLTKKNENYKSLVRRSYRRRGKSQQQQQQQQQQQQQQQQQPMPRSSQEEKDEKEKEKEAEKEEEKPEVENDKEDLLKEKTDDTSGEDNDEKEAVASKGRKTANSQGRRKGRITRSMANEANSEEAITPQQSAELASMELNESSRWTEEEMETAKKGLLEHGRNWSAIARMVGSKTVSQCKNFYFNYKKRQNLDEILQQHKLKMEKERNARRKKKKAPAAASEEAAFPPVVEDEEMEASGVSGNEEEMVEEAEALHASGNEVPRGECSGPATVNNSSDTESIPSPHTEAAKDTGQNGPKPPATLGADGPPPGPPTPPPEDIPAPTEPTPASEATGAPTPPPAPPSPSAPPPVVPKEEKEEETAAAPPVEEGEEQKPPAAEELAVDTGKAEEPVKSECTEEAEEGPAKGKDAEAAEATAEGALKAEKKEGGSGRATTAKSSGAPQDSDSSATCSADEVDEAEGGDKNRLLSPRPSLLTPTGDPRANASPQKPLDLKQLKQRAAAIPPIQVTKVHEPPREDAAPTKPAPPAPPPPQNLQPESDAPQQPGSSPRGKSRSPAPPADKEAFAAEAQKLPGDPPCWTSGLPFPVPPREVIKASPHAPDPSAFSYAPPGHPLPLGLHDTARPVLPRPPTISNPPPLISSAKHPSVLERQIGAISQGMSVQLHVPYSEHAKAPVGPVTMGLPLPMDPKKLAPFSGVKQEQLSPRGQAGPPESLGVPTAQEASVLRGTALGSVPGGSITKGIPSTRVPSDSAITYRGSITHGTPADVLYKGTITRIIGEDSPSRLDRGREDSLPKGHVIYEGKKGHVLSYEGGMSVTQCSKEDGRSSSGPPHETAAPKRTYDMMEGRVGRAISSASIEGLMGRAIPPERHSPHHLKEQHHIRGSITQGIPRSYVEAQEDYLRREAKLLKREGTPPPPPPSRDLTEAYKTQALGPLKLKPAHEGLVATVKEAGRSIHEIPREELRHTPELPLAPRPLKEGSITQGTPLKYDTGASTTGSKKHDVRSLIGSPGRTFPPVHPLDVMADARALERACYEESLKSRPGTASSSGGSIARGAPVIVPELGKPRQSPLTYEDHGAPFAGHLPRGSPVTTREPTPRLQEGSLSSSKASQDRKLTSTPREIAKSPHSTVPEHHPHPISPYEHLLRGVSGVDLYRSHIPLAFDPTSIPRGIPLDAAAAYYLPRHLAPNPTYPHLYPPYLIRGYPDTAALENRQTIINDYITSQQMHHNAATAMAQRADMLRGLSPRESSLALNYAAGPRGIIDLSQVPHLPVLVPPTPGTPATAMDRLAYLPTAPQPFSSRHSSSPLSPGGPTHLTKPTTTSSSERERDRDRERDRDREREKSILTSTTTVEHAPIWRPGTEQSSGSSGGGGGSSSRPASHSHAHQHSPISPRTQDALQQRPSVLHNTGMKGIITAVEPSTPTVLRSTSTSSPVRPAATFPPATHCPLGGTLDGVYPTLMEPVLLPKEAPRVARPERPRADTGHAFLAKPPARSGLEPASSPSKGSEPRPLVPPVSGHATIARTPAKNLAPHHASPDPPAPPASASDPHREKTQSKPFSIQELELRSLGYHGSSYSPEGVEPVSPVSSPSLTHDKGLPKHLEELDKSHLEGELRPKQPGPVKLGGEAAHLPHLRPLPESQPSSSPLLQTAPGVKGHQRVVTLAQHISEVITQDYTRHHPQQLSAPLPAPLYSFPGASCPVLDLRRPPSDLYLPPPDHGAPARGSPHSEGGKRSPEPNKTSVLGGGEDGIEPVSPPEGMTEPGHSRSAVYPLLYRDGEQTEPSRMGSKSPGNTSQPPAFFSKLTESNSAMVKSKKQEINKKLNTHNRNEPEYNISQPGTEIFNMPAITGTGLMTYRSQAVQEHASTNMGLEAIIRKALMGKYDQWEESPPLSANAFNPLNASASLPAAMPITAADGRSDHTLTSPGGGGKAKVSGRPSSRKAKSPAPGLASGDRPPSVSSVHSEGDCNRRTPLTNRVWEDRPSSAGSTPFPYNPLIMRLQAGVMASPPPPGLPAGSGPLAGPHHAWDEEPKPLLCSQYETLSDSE

Question: With `CCCCNc1nc(Cl)nc2c1ncn2Cc1ccc(C(=O)Nc2ccccc2N)cc1` as the molecule, how does the IC50 [1] read?
Answer: The IC50 was 1240 nM.

Question: What about the Activity (HCT-116 [2]) of the same molecule?
Answer: Its Activity is 10.1%.

Question: And the Activity (HCT-116 [3])?
Answer: Its Activity is “Tde”.

Question: And the Activity (HCT-116 [4])?
Answer: Its Activity is 73.05%.

Question: And the Activity (HCT-116 [5])?
Answer: Its Activity is “Active”.

Question: What about the Activity (HCT-116 [6]) of the same molecule?
Answer: The Activity was “Tde”.

Question: And the Activity (HCT-116 [7])?
Answer: The Activity was 67.96%.

Question: What about the IC50 (A549) of the same molecule?
Answer: The IC50 was 1650 nM.

Question: And the “Ratio IC50” value (MDA-MB-231)?
Answer: Its value is 4.

Question: What about the IC50 (Histone deacetylase 8) of the same molecule?
Answer: Its IC50 is 948 nM.

Question: What about the Activity (HCT-116 [8]) of the same molecule?
Answer: Its Activity is 1.2%.

Question: And the CLint [9]?
Answer: The CLint was 2.5 µL/min/mg.

Question: What about the half-life at 13.8 µM [10] of the same molecule?
Answer: Its half-life at 13.8 µM is 1.2 h.
